Measured values taken from BindingDB's records for doi:10.1021/acsmedchemlett.7b00249 (Vanderbilt University School of Medicine, 2017).

Target: Metabotropic glutamate receptor 5 (Rattus norvegicus, UniProt P31424)
Assay: Positive allosteric modulation of rat mGlu5 receptor expressed in HEK293A cells assessed as increase in glutamate induced-calcium mobilization preincubated for 2.3 mins followed by glutamate addition measured for 1.9 mins by Fluo-4 AM dye based fluorescence assay

Metabotropic glutamate receptor 5, sequence (P31424 whole entry): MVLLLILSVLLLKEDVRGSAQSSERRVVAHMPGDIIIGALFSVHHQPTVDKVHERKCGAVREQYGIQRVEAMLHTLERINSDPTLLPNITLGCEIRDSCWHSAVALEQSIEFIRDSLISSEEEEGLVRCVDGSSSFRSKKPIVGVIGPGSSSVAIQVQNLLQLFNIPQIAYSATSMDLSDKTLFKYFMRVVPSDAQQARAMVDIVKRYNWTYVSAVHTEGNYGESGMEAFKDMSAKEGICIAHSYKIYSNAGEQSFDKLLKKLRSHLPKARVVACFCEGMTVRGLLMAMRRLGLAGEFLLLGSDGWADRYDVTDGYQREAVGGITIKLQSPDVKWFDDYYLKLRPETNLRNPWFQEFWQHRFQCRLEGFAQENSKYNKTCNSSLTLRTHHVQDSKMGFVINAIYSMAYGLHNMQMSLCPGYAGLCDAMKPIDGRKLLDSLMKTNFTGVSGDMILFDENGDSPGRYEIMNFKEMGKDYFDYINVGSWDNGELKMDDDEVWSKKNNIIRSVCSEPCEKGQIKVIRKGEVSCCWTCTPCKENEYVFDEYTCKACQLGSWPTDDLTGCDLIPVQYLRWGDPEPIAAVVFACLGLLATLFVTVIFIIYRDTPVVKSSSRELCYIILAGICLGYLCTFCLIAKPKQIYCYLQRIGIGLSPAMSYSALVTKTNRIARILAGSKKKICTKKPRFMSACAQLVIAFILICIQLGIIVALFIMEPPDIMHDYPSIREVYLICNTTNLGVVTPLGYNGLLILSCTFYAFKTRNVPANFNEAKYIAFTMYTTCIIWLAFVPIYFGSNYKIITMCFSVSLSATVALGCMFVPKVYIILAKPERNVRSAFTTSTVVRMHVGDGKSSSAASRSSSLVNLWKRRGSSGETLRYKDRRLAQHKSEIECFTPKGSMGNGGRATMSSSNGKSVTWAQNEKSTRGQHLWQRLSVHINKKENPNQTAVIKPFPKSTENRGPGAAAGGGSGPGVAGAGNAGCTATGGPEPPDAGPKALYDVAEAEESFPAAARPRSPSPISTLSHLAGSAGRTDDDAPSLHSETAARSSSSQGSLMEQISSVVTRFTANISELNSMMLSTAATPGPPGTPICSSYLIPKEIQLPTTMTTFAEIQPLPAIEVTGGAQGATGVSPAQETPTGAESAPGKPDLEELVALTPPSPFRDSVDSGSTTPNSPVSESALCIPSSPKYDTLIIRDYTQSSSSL

O=c1nc(OCCOc2ccccc2)ccn1-c1ccc(F)c(F)c1
EC50: 398 nM
